According to ChEMBL document CHEMBL1144829, “2-Arylbenzoxazoles as novel cholesteryl ester transfer protein inhibitors: optimization via array synthesis” (Bioorg Med Chem Lett, 2008):

Columns and labels:
[1] = biological target: T1, Cholesteryl ester transfer protein (Homo sapiens, UniProt P11597); experiment: Inhibition of human CETP by scintillation proximity assay
T1 sequence (P11597 whole entry): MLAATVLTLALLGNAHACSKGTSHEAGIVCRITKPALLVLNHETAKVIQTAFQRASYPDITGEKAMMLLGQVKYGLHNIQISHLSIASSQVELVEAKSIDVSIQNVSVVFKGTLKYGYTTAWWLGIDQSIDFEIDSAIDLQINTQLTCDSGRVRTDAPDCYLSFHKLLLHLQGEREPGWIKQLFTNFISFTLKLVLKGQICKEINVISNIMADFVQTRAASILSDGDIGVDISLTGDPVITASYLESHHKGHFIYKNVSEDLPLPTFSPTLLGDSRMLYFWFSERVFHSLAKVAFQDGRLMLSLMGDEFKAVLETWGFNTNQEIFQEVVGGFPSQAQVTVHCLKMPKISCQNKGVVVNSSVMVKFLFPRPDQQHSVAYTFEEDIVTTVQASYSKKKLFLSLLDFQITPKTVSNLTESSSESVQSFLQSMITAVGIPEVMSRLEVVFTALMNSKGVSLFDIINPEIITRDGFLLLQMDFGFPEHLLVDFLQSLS

[2] = biological target: T1, Cholesteryl ester transfer protein; experiment: Inhibition of CETP in human whole plasma

| IC50 [1] [µM] | IC50 [2] [µM] | Structure (SMILES) |
| --- | --- | --- |
| > 10 |  | COc1ccc(OCC(=O)Nc2ccc(-c3nc4cc(C)cc(C)c4o3)cc2)cc1 |
| > 32 |  | Cc1ccccc1OCC(=O)Nc1ccc(-c2nc3ccc([N+](=O)[O-])cc3o2)cc1 |
| > 32 |  | Cc1ccccc1OCC(=O)Nc1ccc(-c2nc3ccc(Cl)cc3o2)cc1 |
| 0.085 | 40 | Cc1cc(Cl)ccc1OCC(=O)Nc1ccc(-c2nc3cc(C#N)ccc3o2)cc1 |
| 0.018 | 4.3 | N#Cc1ccc2oc(-c3ccc(NC(=O)COc4ccc(Cl)c(C(F)(F)F)c4)cc3)nc2c1 |
| > 10 |  | Cc1cc(C)c2oc(-c3ccc(NC(=O)COc4ccccc4C#N)cc3)nc2c1 |
| > 10 |  | Cc1cc(C)c2oc(-c3ccc(NC(=O)COc4ccc(OC(F)(F)F)cc4)cc3)nc2c1 |
| 1.9 |  | Cc1ccccc1OCC(=O)Nc1ccc(-c2nc3cc(-c4ccccc4)ccc3o2)cc1 |
| > 10 |  | Cc1cc(C)c2oc(-c3ccc(NC(=O)COc4cccc(C#N)c4)cc3)nc2c1 |
| 7.3 | 31 | Cc1cc(C)c2oc(-c3ccc(NC(=O)COc4ccc(F)cc4)cc3)nc2c1 |
| > 32 |  | Cc1ccccc1OCC(=O)Nc1ccc(-c2nc3cccc(C(=O)O)c3o2)cc1 |
| 0.011 | 4.3 | Cc1cc(Br)ccc1OCC(=O)Nc1ccc(-c2nc3cc(C#N)ccc3o2)cc1 |
| 0.018 | 1.3 | COC(=O)c1c(Cl)ccc(OCC(=O)Nc2ccc(-c3nc4cc(C#N)ccc4o3)cc2)c1C |
| > 10 |  | COc1cccc(OCC(=O)Nc2ccc(-c3nc4cc(C)cc(C)c4o3)cc2)c1 |
| > 10 | 32 | Cc1cc(C)c2oc(-c3ccc(NC(=O)COc4cccc(C(F)(F)F)c4)cc3)nc2c1 |
| 0.015 | 3.2 | N#Cc1ccc2oc(-c3ccc(NC(=O)COc4ccc(Cl)c5c4CCC5)cc3)nc2c1 |
| 8.3 |  | COc1ccccc1OCC(=O)Nc1ccc(-c2nc3cc(C)cc(C)c3o2)cc1 |
| > 10 |  | Cc1cc(C)c2oc(-c3ccc(NC(=O)COc4ccc(C(F)(F)F)cc4)cc3)nc2c1 |
| 1.9 | 91 | Cc1cc(C)c2oc(-c3ccc(NC(=O)COc4ccccc4C(F)(F)F)cc3)nc2c1 |
| > 32 |  | Cc1ccccc1OCC(=O)Nc1ccc(-c2nc3cc(F)ccc3o2)cc1 |
| 1.1 | 31 | Cc1ccc2oc(-c3ccc(NC(=O)COc4ccccc4C)cc3)nc2c1 |

| IC50 [1] [µM] | IC50 [2] [µM] | Structure (SMILES) |
| --- | --- | --- |
| > 32 |  | COC(=O)c1ccc2oc(-c3ccc(NC(=O)COc4ccccc4C)cc3)nc2c1 |
| 0.097 | 26 | Cc1ccccc1OCC(=O)Nc1ccc(-c2nc3cc(Cl)cc(Br)c3o2)cc1 |
| 2.3 |  | Cc1cc(C)c2oc(-c3ccc(NC(=O)COc4cccc(-c5ccccc5)c4)cc3)nc2c1 |
| > 10 |  | Cc1cc(C)c2oc(-c3ccc(NC(=O)COc4ccc(-c5ccccc5)cc4)cc3)nc2c1 |
| 9.3 |  | CCS(=O)(=O)c1ccc2oc(-c3ccc(NC(=O)COc4ccccc4C)cc3)nc2c1 |
| 0.092 | 9.1 | Cc1ccccc1OCC(=O)Nc1ccc(-c2nc3cc(C(F)(F)F)cc(C(F)(F)F)c3o2)cc1 |
| 0.088 | 11 | Cc1ccccc1OCC(=O)Nc1ccc(-c2nc3cc(Cl)cc(Cl)c3o2)cc1 |
| 0.057 | 3.3 | Cc1ccccc1OCC(=O)Nc1ccc(-c2nc3cc(C#N)ccc3o2)cc1 |
| > 32 |  | Cc1ccccc1OCC(=O)Nc1ccc(-c2nc3ccc(F)cc3o2)cc1 |
| > 10 |  | Cc1cc(C)c2oc(-c3ccc(NC(=O)COc4ccccc4F)cc3)nc2c1 |
| 0.69 | 18 | Cc1cccc(OCC(=O)Nc2ccc(-c3nc4cc(C)cc(C)c4o3)cc2)c1 |
| > 10 |  | Cc1ccc(C)c(OCC(=O)Nc2ccc(-c3nc4cc(C)cc(C)c4o3)cc2)c1 |
| 0.031 | 3.2 | Cc1cc(C)c2oc(-c3ccc(NC(=O)COc4ccc(Br)cc4C)cc3)nc2c1 |
| 0.12 | 18 | Cc1ccccc1OCC(=O)Nc1ccc(-c2nc3cc([N+](=O)[O-])ccc3o2)cc1 |
| 0.096 | 2.7 | Cc1cc(C)c2oc(-c3ccc(NC(=O)COc4ccc(Cl)cc4C)cc3)nc2c1 |
| 0.47 | 21 | Cc1ccccc1OCC(=O)Nc1ccc(-c2nc3cc(Cl)ccc3o2)cc1 |
| > 10 |  | Cc1cc(C)cc(OCC(=O)Nc2ccc(-c3nc4cc(C)cc(C)c4o3)cc2)c1 |
| 3.3 |  | Cc1cc(C)c2oc(-c3ccc(NC(=O)COc4ccccc4-c4ccccc4)cc3)nc2c1 |
| 11 | 71 | Cc1ccccc1OCC(=O)Nc1ccc(-c2nc3cc(OC(F)(F)F)ccc3o2)cc1 |
| 0.44 | 28 | Cc1ccccc1OCC(=O)Nc1ccc(-c2nc3cc(Br)ccc3o2)cc1 |
| 0.01 | 0.91 | Cc1c(Cl)ccc(OCC(=O)Nc2ccc(-c3nc4cc(C#N)ccc4o3)cc2)c1C |

| IC50 [1] [µM] | IC50 [2] [µM] | Structure (SMILES) |
| --- | --- | --- |
| > 10 |  | Cc1cc(C)c2oc(-c3ccc(NC(=O)COc4ccccc4Cl)cc3)nc2c1 |
| 1.3 | 11 | Cc1cc(C)c2oc(-c3ccc(NC(=O)COc4cccc(Cl)c4)cc3)nc2c1 |
| > 10 |  | Cc1cc(C)c2oc(-c3ccc(NC(=O)COc4cc(Cl)ccc4Cl)cc3)nc2c1 |
| 13 |  | Cc1ccc2nc(-c3ccc(NC(=O)COc4ccccc4C)cc3)oc2c1 |
| 1.7 | 100 | Cc1ccccc1OCC(=O)Nc1ccc(-c2nc3cccc(C)c3o2)cc1 |
| > 10 |  | COC(=O)c1cccc(OCC(=O)Nc2ccc(-c3nc4cc(C)cc(C)c4o3)cc2)c1 |
| 3.5 | 80 | COC(=O)c1cccc2nc(-c3ccc(NC(=O)COc4ccccc4C)cc3)oc12 |
| > 32 |  | Cc1ccccc1OCC(=O)Nc1ccc(-c2nc3ccc(N4CCCC4)cc3o2)cc1 |
| 0.14 | 4.5 | Cc1ccc(OCC(=O)Nc2ccc(-c3nc4cc(C)cc(C)c4o3)cc2)c(C)c1 |
| > 32 |  | Cc1ccccc1OCC(=O)Nc1ccc(-c2nc3c(C)cccc3o2)cc1 |
| > 32 |  | Cc1ccccc1OCC(=O)Nc1ccc(-c2nc3c([N+](=O)[O-])cccc3o2)cc1 |
| 0.12 | 4.9 | Cc1cc(C)c2oc(-c3ccc(NC(=O)COc4ccc(Cl)c(C(F)(F)F)c4)cc3)nc2c1 |
| 0.59 | 51 | Cc1ccccc1OCC(=O)Nc1ccc(-c2nc3cc(C(F)(F)F)ccc3o2)cc1 |
| 1.2 | 18 | CC(=O)c1ccc2oc(-c3ccc(NC(=O)COc4ccccc4C)cc3)nc2c1 |
| > 32 |  | Cc1ccccc1OCC(=O)Nc1ccc(-c2nc3cc(C(C)(C)C)ccc3o2)cc1 |
| 1.3 | 27 | Cc1ccccc1OCC(=O)Nc1ccc(-c2nc3cc(CO)ccc3o2)cc1 |
| 0.04 | 1.7 | Cc1cc(C)c2oc(-c3ccc(NC(=O)COc4ccc(Cl)c(C)c4C)cc3)nc2c1 |
| 0.042 | 2.8 | COC(=O)c1c(Cl)ccc(OCC(=O)Nc2ccc(-c3nc4cc(C)cc(C)c4o3)cc2)c1C |
| 0.056 | 2.5 | Cc1cc(C)c2oc(-c3ccc(NC(=O)COc4ccc(Cl)c5c4CCC5)cc3)nc2c1 |
| 0.24 | 26 | Cc1ccc(OCC(=O)Nc2ccc(-c3nc4cc(C)cc(C)c4o3)cc2)cc1 |
| 1.1 | 51 | Cc1cc(C)c2oc(-c3ccc(NC(=O)COc4cccc(F)c4)cc3)nc2c1 |

| IC50 [1] [µM] | IC50 [2] [µM] | Structure (SMILES) |
| --- | --- | --- |
| 0.049 | 18 | Cc1ccccc1OCC(=O)Nc1ccc(-c2nc3cc(Cl)cc([N+](=O)[O-])c3o2)cc1 |
| 0.052 | 2.5 | Cc1ccccc1OCC(=O)Nc1ccc(-c2nc3cc(C#N)cc(Cl)c3o2)cc1 |
| > 10 |  | Cc1cc(C)c2oc(-c3ccc(NC(=O)COc4ccc(C#N)cc4)cc3)nc2c1 |
| 0.38 | 20 | Cc1cc(C)c2oc(-c3ccc(NC(=O)COc4ccc(Cl)cc4)cc3)nc2c1 |
| 0.22 |  | COC(=O)c1ccccc1OCC(=O)Nc1ccc(-c2nc3cc(C)cc(C)c3o2)cc1 |
| 0.023 | 4.9 | Cc1cc(C)c2oc(-c3ccc(NC(=O)COc4ccc(F)cc4C)cc3)nc2c1 |
| 0.085 | 3.5 | Cc1cc(C)c2oc(-c3ccc(NC(=O)COc4ccc(C)c5c4CCC5)cc3)nc2c1 |
| 0.2 |  | Cc1cc(C)c2oc(-c3ccc(NC(=O)COc4ccccc4OC(F)(F)F)cc3)nc2c1 |
| > 32 |  | COc1ccc2nc(-c3ccc(NC(=O)COc4ccccc4C)cc3)oc2c1 |
| > 10 |  | Cc1cc(C)c2oc(-c3ccc(NC(=O)COc4c(C)cccc4Cl)cc3)nc2c1 |
| > 10 |  | Cc1cc(C)c2oc(-c3ccc(NC(=O)COc4ccccc4C(C)C)cc3)nc2c1 |
| 0.24 | 27 | CC(=O)c1cc(C)cc2nc(-c3ccc(NC(=O)COc4ccccc4C)cc3)oc12 |
| > 32 |  | COc1ccc2oc(-c3ccc(NC(=O)COc4ccccc4C)cc3)nc2c1 |
| > 32 |  | Cc1ccccc1OCC(=O)Nc1ccc(-c2nc3cc(C(=O)O)ccc3o2)cc1 |
| > 32 |  | COC(=O)c1ccc2nc(-c3ccc(NC(=O)COc4ccccc4C)cc3)oc2c1 |
| 0.2 | 13 | Cc1cc(C)c2oc(-c3ccc(NC(=O)COc4ccc(Cl)c(Cl)c4)cc3)nc2c1 |
| > 10 |  | Cc1cc(C)c2oc(-c3ccc(NC(=O)COc4c(Cl)cccc4Cl)cc3)nc2c1 |
| 0.28 | 8.9 | Cc1cc(C)c2oc(-c3ccc(NC(=O)COc4ccccc4C)cc3)nc2c1 |
| 3.6 | 61 | Cc1cc(C)c2oc(-c3ccc(NC(=O)COc4cccc(OC(F)(F)F)c4)cc3)nc2c1 |
| 0.9 | 67 | Cc1cc(C)c2oc(-c3ccc(NC(=O)COc4cccc(C(C)C)c4)cc3)nc2c1 |
